# From ChEMBL document CHEMBL5120836, “Discovery of novel 7,8-dihydropteridine-6(5H)-one-based DNA-PK inhibitors as potential anticancer agents via scaffold hopping strategy” (Eur J Med Chem, 2022)
# Key:
# MCF7 = test: Synergistic antiproliferative activity against human MCF7 cells assessed as combination index at 50 uM in presence of 0.1 uM doxorubicin by MTT assay; format: functional
# [1] = Toxicity in BALB/c nude mouse xenografted with human HL-60 cells assessed as HGB level at 100 mg/kg, po qd for 16 days (reference value: 156 g/L); format: organism-based; settings: in vivo, 384 h, time 16 day
# MDA-MB-231 = test: Synergistic antiproliferative activity against human MDA-MB-231 cells assessed as combination index at 50 uM in presence of 0.1 uM doxorubicin by MTT assay; format: functional
# HepG2 = test: Synergistic antiproliferative activity against Doxorubicin-resistant human HepG2 cells assessed as combination index at 6.25 uM in presence of 0.1 uM doxorubicin by MTT assay; format: functional
# HL-60 = test: Synergistic antiproliferative activity against human HL-60 cells assessed as combination index at 100 uM in presence of 0.1 uM doxorubicin by MTT assay; format: functional
smiles,measurement,setting,value
Cc1cc2ncnn2cc1Nc1ncc2c(n1)N(C1CCOCC1)CC(=O)N2C,CI,MCF7,0.1215
same,Activity,[1],148 g/L
same,CI,MDA-MB-231,0.705
same,CI,HepG2,0.0268
same,CI,HL-60,0.551
